Experimental data published in patent US20240238255A1, “KL1333 FOR USE IN MEDICINE” (ABLIVA AB, priority 2021, published 2024).

Key:
[1] = Plasma exposure of Total KL1333, Part C patients with primary mitochondrial disease; conditions: human, in vivo
From the text: (§1) Part C will comprise a randomised, multiple-dose, single-group, placebo-controlled study. A total of 8 patients diagnosed with any mitochondrial disease will be enrolled in this part of the study. Part C may start after the dose selection conference has been completed for the final cohort of Part B, at a daily dose no higher than the highest well-tolerated dose in Part B.
It is planned for patients to receive study drug QD on Days 1 to 10. Dose levels, dose frequency, and dietary state will be confirmed following review of safety, tolerability, and PK data from Part B, and unless deemed very unfavourable for the conduct of the study, the patients will not be required to be fasting prior to dosing. Study drug will be administered by clinical site staff when the patients are resident at the clinical site or return for outpatient visits. On all other days, patients will record drug administration and any concomitant medications in a diary that will be provided to each patient. Diaries will be reviewed and checked for compliance during the outpatient visits and as part of the check-in procedures on Day 10. Clinical symptoms that occur while patients are not resident at the site will be collected by the site using standard adverse event (AE) reporting procedures. […]

healthy subjects = assay: Safety and tolerability in healthy subjects (Parts A, B, D); format: in vivo, human
Experimental: Part A will comprise a randomised, single-dose, single-sequence, placebo-controlled study. Eight healthy subjects will be studied in a single cohort (Group A1). Potential subjects will be screened to assess their eligibility to enter the study within 28 days prior to the first dose administration. Subjects will participate in 2 treatment periods. For each treatment period, subjects will reside at the Phase I clinical site from Days −1 to 3 (48 hours postdose). Subjects will return to the clinical site for outpatient visits on Days 4 and 5. There will be at least a 10-day washout between doses (from Period 1, Day 1 to Period 2, Day 1).
Six subjects will be randomised to receive 25 mg KL1333 and 2 subjects will be randomised to receive placebo, and subjects will receive the same treatment in both treatment periods. On Treatment Period 1, Day 1, subjects will receive a single oral dose of study drug following an overnight fast of at least 8 hours. On Treatment Period 2, Day 1, subjects will receive a single oral dose of study drug after consuming a standard high-fat breakfast. Following review of safety, tolerability, and PK data, up to 2 additional dose cohorts of healthy subjects may be added if needed to determine the study treatment for
Part B will comprise a randomised, multiple-dose, sequential-group, placebo-controlled study. Sixteen healthy subjects will be studied in 2 cohorts (Groups B1 and B2), with each cohort consisting of 8 subjects. Part B may start after completion of Group A1, at a dose equal to or less than given in Part A.
On Day 1, 6 subjects will be randomised to receive KL1333 and 2 subjects will be randomised to receive placebo. The preliminary planned doses of KL1333 for Groups B1 and B2 are 25 and 50 mg, respectively, once daily (QD) on Days 1 to 10. Dose levels, dose frequency, and dietary state will be confirmed following review of safety, tolerability, and PK data from Part A and ongoing data from Part B. Additionally, a dose selection conference meeting will be held before each cohort in Part B where blinded data from the previous cohort will be reviewed before a decision is made about proceeding to the next cohort. Following review of safety, tolerability, and PK data, up to 3 additional dose cohorts of healthy subjects may be added to further explore the PK, safety, and tolerability of KL1333. If additional cohorts are required, each cohort will consist of 8 subjects, with 6 subjects receiving KL1333 and 2 subjects receiving placebo. The dose level will not exceed 600 mg, and the predicted exposure following multiple daily dose administration in any subject in Part B will not exceed an AUC0-24 of 51,800 ng.h/mL for derived total KL1333. There will be a minimum of 6 days between dose escalations for each cohort (between the last dose of one cohort and the first dose of the next cohort). Subjects will return for a Follow-up visit on Day 15, 5 days after their final dose.
Part D will comprise a randomised, multiple-dose, placebo-controlled study. Sixteen healthy subjects will be studied in 2 cohorts (Groups D1 and D2), with each cohort consisting of 8 subjects. Part D will start after completion of Part B, and the Part D groups may be run in parallel.
On Day 1, 6 subjects will be randomised to receive KL1333 and 2 subjects will be randomised to receive placebo. The doses of KL1333 for Groups D1 and D2 are 75 mg twice daily (BID) and 50 mg 3 times daily (TID), respectively, on Days 1 to 10 with a single dose administration on Day 10.
The safety and tolerability of KL1333 in healthy volunteers was explored at multiple ascending doses in part B and D of the study. Part D specifically explored if tolerability was improved by dividing the daily dose into two and three administrations respectively. Cohorts B3, D1 and D2 all received total daily doses of 150 mg for 10 days. Cohort B3 received 150 mg once daily (QD), cohort D1 received 75 mg twice daily (BID), and cohort D2 50 mg three times daily (TID). […]

[2] = tested on: patients with primary mitochondrial disease; assay: Safety and tolerability in patients with primary mitochondrial disease (Part C); format: in vivo; conditions: multiple oral QD doses of 50 mg for 10 days
From the text: as §1
Two patients will be initially dosed, with 1 patient receiving KL1333 and 1 patient receiving placebo. If there are no safety or tolerability concerns in these patients following the Day 4 visit, the remaining 6 patients, with 5 patients receiving KL1333 and 1 patient receiving placebo, will be enrolled on a rolling basis. In the event there are safety concerns following completion of the 2 sentinel patients without meeting stopping criteria, the Sponsor may add intermediate cohorts if the safety evaluation in intermediate cohorts will be needed. The dosing schedule of intermediate cohorts will be the same as that of the planned cohort. The schedule of safety assessments of intermediate cohorts will be the same as that of the planned cohort as a general rule. Whether or not to add safety assessments in the intermediate cohorts will be determined by the Sponsor.
It is planned for patients to receive study drug QD on Days 1 to 10. […]

[3] = tested on: patients with primary mitochondrial disease; assay: NeuroQoL Short Form Fatigue in primary mitochondrial disease patients; format: in vivo, human
[4] = tested on: patients with primary mitochondrial disease; assay: Daily Fatigue Impact Scale (D-FIS) in primary mitochondrial disease patients; format: in vivo, human
[5] = tested on: patients with primary mitochondrial disease; assay: 30 Second Sit-to-Stand Test in primary mitochondrial disease patients; format: in vivo, human; conditions: 50 mg QD for 10 days, versus placebo; number of sit to stand repetitions
[6] = tested on: patients with primary mitochondrial disease; assay: Clinical outcome assessments overall in primary mitochondrial disease patients; format: in vivo, human
[7] = tested on: blood lactate/pyruvate ratio; assay: Blood lactate/pyruvate ratio in healthy volunteers; format: in vivo, human
Experimental: FIG. 5. Healthy volunteers were treated with KL1333 (n=36) or placebo (n=14) once daily for 9 days prior to blood sampling for measurement of lactate and pyruvate concentrations and calculation of a lactate pyruvate ratio. Data for different doses of KL1333 were combined, including 50 mg QD, 50 mg TID, 75 mg QD, 75 mg BID, 150 mg QD and 250 mg QD.
FIG. 6. The blood lactate/pyruvate concentration ratio decreased with increasing concentration of KL1333 in plasma Day 10 after treatment with KL1333. Healthy volunteers were treated with KL1333 (n=36) or placebo (n=14) once daily for 9 days prior to blood sampling for measurement of lactate and pyruvate concentrations and calculation of a lactate pyruvate ratio. Data for different doses of KL1333 were combined from 7 cohorts consisting of two placebo and 6 KL1333 subjects, treated with 25 mg QD, 50 mg QD, 50 mg TID, 75 mg QD, 75 mg BID, 150 mg QD and 250 mg QD. Data were normalized against the cohort mean value for each cohort.
(§2) For Parts B through D, blood biomarker assessments will include: • nicotinamide adenine dinucleotide (oxidized form; NAD^+)/nicotinamide adenine dinucleotide (reduced form; NADH) concentrations and ratio • fibroblast growth factor-21 (FGF21) • growth/differentiation factor-15 (GDF15) • lactate/pyruvate concentrations and ratio.

[8] = tested on: lactate/pyruvate ratio, serum niacinamide, serum xanthine; assay: Blood and serum biomarkers in PMD patients; format: in vivo, human
Experimental: FIG. 7. Lactate/Pyruvate ratio in PMD patients treated daily with 50 mg KL1333 (n=6) or placebo (n=2) for 10 days.
FIG. 8. Serum niacinamide is an early biomarker of response to KL1333 treatment. PMD patients were treated with 50 mg KL1333 QD (n=6) or placebo (n=2). The data are expressed as the ratio of the niacinamide concentrations in Day 2 and Day 1 serum samples.
FIG. 9. Serum xanthinse is an early biomarker of response to KL1333 treatment. PMD patients were treated with 50 mg KL1333 QD (n=6) or placebo (n=2). The data are expressed as the ratio of the xanthine concentrations in Day 2 and Day 1 serum samples.
as §2

NQO1 = NQO1 (Homo sapiens, UniProt P15559); assay: NQO1 substrate activity; format: biochemical; conditions: compared with other NQO1 active compounds (ie, idebenone)
NQO1, sequence (P15559 whole entry, species assumed): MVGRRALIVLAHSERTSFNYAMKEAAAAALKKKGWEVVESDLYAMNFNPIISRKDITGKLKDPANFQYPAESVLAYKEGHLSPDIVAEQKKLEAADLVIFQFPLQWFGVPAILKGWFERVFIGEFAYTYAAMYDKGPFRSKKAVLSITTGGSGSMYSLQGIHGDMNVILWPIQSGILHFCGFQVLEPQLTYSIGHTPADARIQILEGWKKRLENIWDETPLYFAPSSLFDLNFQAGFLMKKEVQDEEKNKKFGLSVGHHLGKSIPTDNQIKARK
From the text: KL1333 is a novel compound under development for primary mitochondrial diseases. KL1333 acts as a substrate for NAD(P)H:dehydrogenase [quinone]1 (NQO1), which produces nicotinamide adenine dinucleotide (oxidized form; NAD^+) by transferring 2 electrons to KL1333 using nicotinamide adenine dinucleotide (reduced form; NADH) as a cofactor. KL1333 transfers these electrons to the mitochondrial electron transport system, directly promoting ATP production. Additionally, the elevated NAD^+ levels lead to activation of mitochondrial biogenesis pathways, such as sirtuin 1 (SIRT1), 5′-adenosine monophosphate-activated protein kinase (AMPK), and peroxisome proliferator-activated receptor gamma coactivator 1-alpha (PGC-1α), thereby improving mitochondrial function.

[9] = tested on: cells derived from patients with MELAS; assay: Cellular models, including cells derived from patients with MELAS; format: cell-based, human; conditions: including MELAS patient-derived cells
[10] = Drug substance properties; format: physicochemical; conditions: crystalline powder
From the text: KL-1333 is a drug substance with a molecular mass of 240.26 g/mol. […] It is manufactured via multi-step chemical synthesis.

[11] = 50 mg once daily, 10 days of dosing, PMD patients
[12] = 50 mg QD, after one day of treatment (Day 2/Day 1)

**Q.** With `CC(C)c1nc2c([nH]1)C(=O)C(=O)c1ccccc1-2` [KL1333] as the compound, how does the “pharmacokinetics profile, healthy volunteers versus patients” value [1] read?
**A.** similar

**Q.** What about the “frequency and severity of loose stool episodes (Bristol Stool chart)” value (healthy subjects; 150 mg daily for 10 days: 75 mg BID and 50 mg TID versus 150 mg QD) of the same compound?
**A.** improved

**Q.** What about the tolerability (healthy subjects; QD doses of 150 mg, healthy subjects) of the same compound?
**A.** tolerated

**Q.** What about the tolerability (healthy subjects; QD doses of 250 mg, healthy subjects, GI TEAEs) of the same compound?
**A.** poorly tolerated

**Q.** And the tolerability (healthy subjects; QD doses of 25 to 75 mg, healthy subjects)?
**A.** well tolerated

**Q.** What about the “tolerability of BID or TID versus QD dosing” value (healthy subjects; daily doses of 150 mg, healthy subjects, GI-related adverse events) of the same compound?
**A.** better tolerated

**Q.** And the “clinical chemistry, hematology, urinalysis data” value (healthy subjects; mean or individual subject data during the study)?
**A.** no apparent treatment- or dose-related trends

**Q.** What about the tolerability (healthy subjects; single oral doses of 25 mg with or without food, healthy subjects) of the same compound?
**A.** well tolerated

**Q.** What about the “vital signs, 12-lead ECGs, physical examinations” value (healthy subjects; whole study) of the same compound?
**A.** no apparent treatment- or dose-related trends

**Q.** And the serious adverse events (healthy subjects; whole study: 64 healthy volunteers and 8 patients, KL1333 or placebo)?
**A.** no serious adverse events

**Q.** And the tolerability [2]?
**A.** well tolerated

**Q.** And the “NeuroQoL Short Form Fatigue, mean change” value ([3]; 50 mg QD for 10 days, baseline to day 10, n=6 versus placebo n=2)?
**A.** improvement

**Q.** What about the “NeuroQol fatigue change from baseline, high exposure group versus placebo” value ([3]; 50 mg QD for 10 days, high exposure patients, Kruskal-Wallis test) of the same compound?
**A.** statistically significant better than placebo

**Q.** What about the “correlation of NeuroQol SF Fatigue raw score change with Total KL1333 Ctrough” value ([3]; change from baseline to day 10, Ctrough at day 10) of the same compound?
**A.** statistically significant correlation

**Q.** And the “Daily Fatigue Impact Scale, mean change” value ([4]; 50 mg QD for 10 days, versus placebo, reduction of fatigue impacts on daily activities)?
**A.** greater improvement

**Q.** And the “correlation of DFIS change with Total KL1333 Ctrough” value ([4]; change from day-1 to day 10, Ctrough at day 10)?
**A.** statistically significant correlation

**Q.** And the “30s Sit-to-stand test, mean change” value [5]?
**A.** greater improvement

**Q.** What about the fatigue [6, 11] of the same compound?
**A.** marked improvement in fatigue

**Q.** What about the muscle strength [6, 11] of the same compound?
**A.** marked improvement in muscle strength

**Q.** What about the “combatting fatigue and muscle weakness” value ([6]; clinical outcome assessments of primary mitochondrial disease patients) of the same compound?
**A.** effective

**Q.** What about the “blood lactate pyruvate ratio in relation to plasma concentration of KL1333” value ([7]; Day 10, plasma concentration prior to blood sampling) of the same compound?
**A.** lowest in individuals with a plasma concentration of KL1333 exceeding 100 ng/ml

**Q.** What about the blood lactate/pyruvate ratio ([7]; after 10 days of treatment, doses combined (n=36 versus placebo n=14)) of the same compound?
**A.** trend of decreasing

**Q.** What about the serum niacinamide [8, 12] of the same compound?
**A.** increased

**Q.** What about the serum xanthine [8, 12] of the same compound?
**A.** increased

**Q.** And the “lactate/pyruvate ratio, Day 10 compared to Day 1” value ([8]; 50 mg daily for 10 days (n=6), not seen in placebo)?
**A.** decreased

**Q.** What about the “potency as substrate to NQO1” value (NQO1) of the same compound?
**A.** more potent substrate to NQO1 than other NQO1 active compounds

**Q.** And the ATP [9]?
**A.** increased ATP

**Q.** What about the “NAD+” value [9] of the same compound?
**A.** increased NAD^+

**Q.** And the ROS [9]?
**A.** decreased ROS

**Q.** And the “SIRT1, AMPK and PGC-1α activation” value [9]?
**A.** activation of SIRT1, AMPK, and PGC-1α

**Q.** And the lactic acid [9]?
**A.** decreased lactic acid

**Q.** And the “mitochondrial oxidative phosphorylation function” value [9]?
**A.** improved mitochondrial oxidative phosphorylation function

**Q.** What about the hygroscopicity [10] of the same compound?
**A.** non-hygroscopic

**Q.** And the solubility in water [10]?
**A.** practically insoluble
